Data: patent US12428370B2, “Haloallylamine dual amine oxidase inhibitors” (Syntara Limited, priority 2020, dated 2025)
Counter-ions that a name gives are not always drawn.

Legend:
[1] = biological target: T1, Adipose Tissue SSAO/VAP-1 (Mus musculus, UniProt O70423); assay: Mouse adipose tissue SSAO/VAP-1 activity after oral administration; type: in vivo; conditions: for SSAO/VAP-1 activity in adipose tissue: C57BL/6J mice, single oral dose, FIG. 8
T1 construct: from tissue; host or cells: abdominal fat of C57BL/6J and mdx (C57BL/10ScSn-Dmdmdx/J) mice
T1 sequence (O70423 1-765): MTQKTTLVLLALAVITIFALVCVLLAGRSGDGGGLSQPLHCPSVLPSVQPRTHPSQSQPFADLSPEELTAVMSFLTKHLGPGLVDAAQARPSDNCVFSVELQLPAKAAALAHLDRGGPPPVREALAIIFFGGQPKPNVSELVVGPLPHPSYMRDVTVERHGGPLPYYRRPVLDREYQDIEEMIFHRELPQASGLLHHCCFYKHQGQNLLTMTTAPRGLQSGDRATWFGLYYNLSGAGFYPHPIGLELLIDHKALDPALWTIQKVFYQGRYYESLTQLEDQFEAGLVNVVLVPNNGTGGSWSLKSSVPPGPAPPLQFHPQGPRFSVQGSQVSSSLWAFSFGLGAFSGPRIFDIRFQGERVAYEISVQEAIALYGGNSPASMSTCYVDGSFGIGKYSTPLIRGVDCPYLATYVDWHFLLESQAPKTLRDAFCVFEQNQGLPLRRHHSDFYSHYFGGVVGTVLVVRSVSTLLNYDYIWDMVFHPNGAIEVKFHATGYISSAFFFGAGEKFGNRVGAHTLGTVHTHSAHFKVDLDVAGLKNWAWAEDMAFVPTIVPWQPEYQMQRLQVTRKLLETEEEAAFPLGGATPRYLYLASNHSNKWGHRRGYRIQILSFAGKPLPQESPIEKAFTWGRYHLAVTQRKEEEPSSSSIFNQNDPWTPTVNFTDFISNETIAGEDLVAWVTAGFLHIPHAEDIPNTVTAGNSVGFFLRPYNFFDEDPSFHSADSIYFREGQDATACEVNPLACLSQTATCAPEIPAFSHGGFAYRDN
Description: Mice were orally administered the compound under study and sacrificed at various time points and abdominal fat, muscle and heart tissue collected.
SSAO/VAP-1 activity in the adipose tissue was determined as described in EXAMPLE 13.
Activity of the treated samples was analyzed using the fluorometric method described in EXAMPLE 9 for SSAO/VAP-1 activity, EXAMPLE 10 for MAO-B and EXAMPLE 11 for MAO-A activity (FIG. 8 and FIG. 9).

recombinant human MAO-A = biological target: T2, recombinant human MAO-A (Homo sapiens, UniProt P21397); assay: Inhibition of human recombinant MAO-A; type: biochemical; conditions: incubation time of 2 hours, tyramine 100 μM
T2 construct: purchased Sigma Aldrich
T2 sequence (P21397 1-527): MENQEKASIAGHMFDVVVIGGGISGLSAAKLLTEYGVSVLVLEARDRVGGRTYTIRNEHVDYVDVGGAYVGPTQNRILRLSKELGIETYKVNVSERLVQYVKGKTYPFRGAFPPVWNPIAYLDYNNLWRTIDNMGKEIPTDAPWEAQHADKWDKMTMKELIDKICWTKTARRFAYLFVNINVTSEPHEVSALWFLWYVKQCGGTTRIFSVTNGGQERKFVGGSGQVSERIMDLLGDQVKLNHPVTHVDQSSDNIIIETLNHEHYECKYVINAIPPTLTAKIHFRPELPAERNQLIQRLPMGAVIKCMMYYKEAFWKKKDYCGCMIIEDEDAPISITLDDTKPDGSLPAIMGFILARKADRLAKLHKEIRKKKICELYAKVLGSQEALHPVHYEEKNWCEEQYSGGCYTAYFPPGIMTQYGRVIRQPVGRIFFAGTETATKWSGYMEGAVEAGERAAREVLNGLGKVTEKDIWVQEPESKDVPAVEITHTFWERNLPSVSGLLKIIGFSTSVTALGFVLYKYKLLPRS
Description: Method to Determine the Ability of Compounds of Formula I to Inhibit Human Recombinant MAO-A
The selectivity of the compounds of this invention was tested by determining their ability to inhibit MAO-A activity in vitro, using recombinant human MAO-A (0.003 mg/mL; Sigma Aldrich). The assay was performed in a similar way as for human SSAO/VAP-1 (EXAMPLE 9) except, the substrate tyramine was used at 100 μM in place of benzylamine and the assay was run after an incubation time of 2 hours.

[2] = test system: Salmonella typhimurium strains TA98, TA100 and Escherichia. coli WP2 uvrA pKM101; assay: Miniaturized bacterial reverse mutagenicity screening assay; type: cell-based; conditions: 7.81-1000 μg/well, presence and absence of S9 metabolic activation
Description: Compound 1 was tested for mutagenic potential in a miniaturized reverse mutation assay using Salmonella typhimurium strains TA98, TA100 and Escherichia. coli WP2 uvrA pKM101 in the presence and absence of a metabolic activation system. The test article was formulated in dimethylsulfoxide (DMSO) at nominal concentration of 50 mg/mL and serial dilutions were made from this stock solution. Final dosing concentrations were 1000, 500, 250, 125, 62.5, 31.3, 15.6 and 7.81 μg/well for the test article. Metabolic activation was provided using an S9 mix containing 10% v/v Aroclor-1254-induced rat liver S9 (Regensys System reagents, Moltox, Boone, NC).

[3] = Metabolic stability profile (liver microsomes, hepatocytes, plasma, whole blood, simulated gastric fluid, metabolite identification); type: in vitro ADME; conditions: all assays: liver microsomes, plasma (human, rat, dog), simulated gastric fluid pH 1.2, metabolite identification
Description: Assessment of the metabolic stability profile of Compound 1 using standardized commercially available methods (available through contract research organizations such as Eurofins Panlabs Inc, (https://www.eurofinsdiscoveryservices.com/services/in-vitro-assays/) or Evotec SE, (https://www.evotec.com/en/execute/integrated-pre-clinical-development/adme)).
The potential for metabolism in vivo was evaluated in vitro using the following assays:
Liver microsomal stability (human, rat, dog; in presence of NADPH)
Hepatocyte stability (human, rat, dog)
Plasma stability (human, rat, dog)
Whole blood stability (human, rat)
Simulated gastric fluid stability (10 μM test article, pH 1.2)
Metabolite identification in human hepatocytes

[4] = Pharmacokinetic study in Wistar rats, oral gavage; type: in vivo; conditions: oral gavage at 3 mg/kg, plasma, FIG. 1
Description: Pharmacokinetic (PK) studies were carried out at Sundia MediTech Co. Ltd., Shanghai. […] At various times between 15 minutes and 8 hours, blood samples were collected by tail vein bleed. Plasma was analyzed by high performance liquid chromatography-tandem mass spectrometry using a Shimadzu LC30AD HPLC and a QTRAP 5500 mass spectrometer. The time course and basic PK parameters thus obtained are outlined in FIG. 1.

Row | SMILES | SSAO/VAP-1 activity in adipose tissue ([1]; 24-hour time point) | SSAO/VAP-1 activity in adipose tissue ([1]; various doses, 4 hours after administration) | adipose tissue SSAO/VAP-1 activity ([1]; mdx mice (C57BL/10ScSn-Dmdmdx/J), oral, FIG. 10) | IC50 (recombinant human MAO-A) [µM] | mutagenic potential [2] | metabolic stability [3] | pharmacokinetic profile [4]
1 | N#Cc1ccc(OC/C(=C/F)CN)cc1 [Compound 1, (E)-4-((2-(aminomethyl)-3-fluoroallyl)oxy) benzonitrile] | inhibition of the enzyme activity is still evident | dose-related reduction | completely inhibits | > 30 | did not induce a response indicative of mutagenic potential | favourable metabolic stability | 
2 | NC/C(=C\F)C1Cc2ccccc2O1 (single isomer, unassigned; (-)) [PXS-5131, (−)-(E)-2-(2,3-Dihydrobenzofuran-2-Yl)-3-Fluoroprop-2-En-1-Amine Hydrochloride] |  |  |  | 0.3 to 3 |  |  | inferior to Compound 1
